# Test: pKa value
# Assay type: physicochemical
row,Compound,pKa
1,Cc1ccc(NS(=O)(=O)c2cccc([N+](=O)[O-])c2)cc1,7.8
2,Nc1ccc(NS(=O)(=O)c2ccc(Cl)cc2)cc1,9.76
3,O=S(=O)(Nc1ccccc1)c1ccc(Cl)cc1,8.47
4,O=[N+]([O-])c1cccc(S(=O)(=O)Nc2ccc(Cl)cc2)c1,7.19
5,O=[N+]([O-])c1cccc(S(=O)(=O)Nc2ccc(F)cc2)c1,7.27
6,Cc1ccc(S(=O)(=O)Nc2ccccc2)cc1,9.35
7,O=[N+]([O-])c1cccc(S(=O)(=O)Nc2ccccc2)c1,7.5
8,O=S(=O)(Nc1ccc(Cl)cc1)c1ccc(Cl)cc1,8.3
9,O=[N+]([O-])c1cccc(NS(=O)(=O)c2ccc(F)cc2)c1,7.85
10,O=S(=O)(Nc1ccccc1)c1ccc(F)cc1,8.9
11,O=S(=O)(Nc1ccccc1)c1ccc(Br)cc1,8.5
12,Cc1cccc(S(=O)(=O)Nc2ccc(N)cc2)c1,10.4
13,COc1ccc(S(=O)(=O)Nc2ccccc2)cc1,9.42
14,COc1ccc(S(=O)(=O)Nc2ccc(Cl)cc2)cc1,9.19
15,O=S(=O)(Nc1ccccc1)c1cccc(Br)c1,8.25
16,O=[N+]([O-])c1cccc(NS(=O)(=O)c2ccc(Cl)cc2)c1,7.51
17,O=[N+]([O-])c1ccc(S(=O)(=O)Nc2cccc([N+](=O)[O-])c2)cc1,5.51
18,O=S(=O)(Nc1ccccc1)c1ccccc1 [PHENYL(PHENYLSULFONYL)AMINE],9.1
19,Cc1ccc(S(=O)(=O)Nc2cccc([N+](=O)[O-])c2)cc1,8.27
20,O=S(=O)(Nc1ccc(Cl)cc1)c1ccccc1,8.75
21,COc1ccc(S(=O)(=O)Nc2cccc([N+](=O)[O-])c2)cc1,8.44
22,O=S(=O)(Nc1ccc(Cl)cc1)c1ccc(Br)cc1,8.24
23,Nc1ccc(NS(=O)(=O)c2ccccc2)cc1,10.3
24,O=[N+]([O-])c1ccc(S(=O)(=O)Nc2ccc(Cl)cc2)cc1,6.24
25,O=[N+]([O-])c1cccc(NS(=O)(=O)c2ccc(Br)cc2)c1,7.42
26,O=[N+]([O-])c1cccc(NS(=O)(=O)c2ccccc2)c1,7.93

# Further lines, results first:
row,pKa,Compound
1,8.78,Cc1ccc(NS(=O)(=O)c2ccc(Cl)cc2)cc1
2,8.38,O=S(=O)(Nc1ccc(F)cc1)c1ccc(Br)cc1
3,6.45,O=[N+]([O-])c1ccc(S(=O)(=O)Nc2ccc(F)cc2)cc1
4,8.85,O=S(=O)(Nc1ccc(F)cc1)c1ccccc1
5,8.41,O=S(=O)(Nc1ccc(F)cc1)c1ccc(Cl)cc1
6,8.73,O=S(=O)(Nc1ccc(F)cc1)c1ccc(F)cc1
7,9.23,Cc1ccc(NS(=O)(=O)c2ccc(F)cc2)cc1
8,8.61,O=S(=O)(Nc1ccc(Cl)cc1)c1ccc(F)cc1
9,6.78,Cc1ccc(NS(=O)(=O)c2ccc([N+](=O)[O-])cc2)cc1
10,9.8,COc1ccc(S(=O)(=O)Nc2ccc(C)cc2)cc1
11,9.34,Cc1ccc(NS(=O)(=O)c2ccccc2)cc1
12,9.02,Cc1ccc(S(=O)(=O)Nc2ccc(Cl)cc2)cc1
13,9.65,Cc1ccc(NS(=O)(=O)c2ccc(C)cc2)cc1
14,9.2,Cc1ccc(S(=O)(=O)Nc2ccc(F)cc2)cc1
15,9.32,COc1ccc(S(=O)(=O)Nc2ccc(F)cc2)cc1
16,10.5,Cc1ccc(S(=O)(=O)Nc2ccc(N)cc2)cc1
